Laboratory results as given in patent US12622916B2, “Use of H3K9me3 modulation for enhancing cognitive function” (THE REGENTS OF THE UNIVERSITY OF CALIFORNIA, priority 2015, dated 2026).
Entries after “also recorded” stand apart in the source; their conditions may differ.

Tests used:
[1] = tested on: 14 DIV hippocampal neurons; experiment: Oxygen-glucose deprivation (OGD)-induced cytotoxicity, LDH assay; type: cell-based; conditions: OGD 2 hours, LDH 48 hours after OGD
Procedure: OGD in 14 DIV hippocampal neurons was induced by an approach similar to that described by Newcomb-Fernandez et al (2001). Normal media was replaced with PBS and culture plates were placed in an airtight chamber. The chamber was flushed with N2 and CO2 for 3 minutes, sealed, and placed in a 37° C. incubator for 2 hours. PBS was replaced with DMEM (serum-free) and cultures were returned to a normoxic environment. Culture medium was collected 48 hours after the cultures had returned to a normal environment. The cytotoxicity was measured by LDH assay (Thermo-Fisher). To calculate % Cytotoxicity, subtract the LDH activity of the Spontaneous LDH, release Control (water-treated) from the chemical-treated sample LDH activity, divide by the total LDH activity [(Maximum LDH Release Control activity)—(Spontaneous LDH Release Control activity)], and multiply by 100:
Initially we tested the effect of ETP69 on oxygen-glucose deprivation (OGD)-induced cytotoxicity. Mature hippocampal neurons (14 DIV) were treated with OGD for 2 hours in the presence or absence of ETP69. Cytotoxicity was measured by LDH assay 48 hours after OGD. […] FIG. 13 is a graphical illustration of the effect of ETP69 on neuronal survival after oxygen-glucose deprivation (OGD). 14 DIV hippocampal neurons were treated with OGD for 2 hours in the presence or absence of ETP. Cytotoxicity was measured by LDH assay 48 hours after OGD. […]

[2] = tested on: bdnf promoters; experiment: ChIP for H3K9me3 at BDNF promoter regions in hippocampus; type: in vivo; conditions: aged mice, ETP69 versus controls
Procedure: ChIP for BDNF promoter regions: After cross-linking with 1% formaldehyde, chromatin was sheared to fragments of 200-500 bp. Immunoprecipitation was realized overnight at 4° C. with an antibody directed against histone H3K9me3 (H3K9me3; Millipore). After washes, elution from beads, and reversal of the cross-link, immunoprecipitated DNA was purified and analyzed in triplicate by qRT-PCR with an internal standard curve prepared from pooled input samples. Each sample was normalized with the respective input value. Primers for bdnf promoters for exon I, IV, and VI correspond to each unique exon sequence. RT-qPCR primer sets were designed using the Roche Universal Probe Library Assay Design Center and obtained from Integrated DNA Technologies (Coralville, IA). RT-qPCR reactions were run in a Stratagene MX3005P thermocycler at 95° C. for 3 min, followed by 45 cycles of 95° C. for 10 s, and 58° C. for 15 s. Each RT-qPCR run included all samples run in triplicate and a standard curve. Data were analyzed by the 2^−ΔΔct method and expressed as fold change over control after normalizing with input samples, as described previously.

[3] = tested on: hippocampal synaptosomes; experiment: Flow synaptometry of hippocampal synaptosomes of aged mice; type: in vivo; conditions: 10 mg/kg i.p.
Procedure: Spine counts: In another series of experiments 10 aged mice (20-22 months) were injected with ETP69 (10 mg/kg; i.p) or vehicle (i.p) and 24 hours later the animals were euthanized and the brains were separated into two hemispheres. Right hemisphere was used for Golgi staining and the left was processed for flow synaptometry. Staining was conducted according to manufacturer's information (Golgi-Cox, Bioenna).
Flow Synaptometry: Fresh synaptosome P2 fractions were obtained from whole mouse hippocampus using our long-standing protocol. Briefly, the fractions were obtained from the hippocampus by homogenizing tissue (1:10 w/v) in ice-cold sucrose 320 mM. All the steps were carried out at 4° C.; sucrose buffer, grinder, pestle and microfuge tubes were all pre-cooled on ice. Hippocampi were rapidly dissected from a single mouse and homogenized in 320 mM sucrose (1.5 ml) containing HEPES [10 mM] and protease/phosphatase inhibitors cocktail, pH 7.4. Homogenization consisted of 6-8 manual strokes in a glass-Teflon grinder, clearance (between plunger and glass): 0.15-0.25 mm. Plunger was gently rotated during strokes while the grinder was kept on ice. The homogenate was centrifuged at 1200 g for 10 min. Supernatant (S1, containing mitochondria and synaptosomes) was transferred into two clean microfuge tubes and centrifuged at 12,000 g for 20 min. Supernatants (S2) were carefully removed using a plastic tip and vacuum. Pellets (P2, corresponding to the crude synaptosome fraction) were resuspended by gently pipetting up and down in 1.5 ml of PBS Protein concentration was determined using the BCA assay using bovine serum albumin (BSA) as standard. Before immunolabeling, all samples were adjusted to the same protein concentration using PBS as diluent. Immunolabeling for flow synaptometry analysis was performed according to a method for staining of extracellular/intracellular antigens using 200 ul of synaptosomal fractions (50-100 μg protein). Antibodies: GluR1 (extracellular) (Millipore, ABN241, DIL=1:400), p-Akt-ser473 (Cell Signaling, 4060, DIL=1:400), PSD-95 (Millipore, MAB1598, DIL=1:400), anti-rabbit IgG Alexa-488 ad anti-mouse IgG Alexa 647 (Life Science, DIL=1:400). […] Relative size and granularity was determined by forward (FSC) and side scatter (SSC) properties. […] Alexa 488 and Alexa 647 fluorochromes were detected by the FL1 and FL4 detectors, respectively. […] Ten thousand size-gated particles were collected and analyzed for each sample. […]
Next, we studied the influence of ETP69 on synapses using flow synaptometry, an innovative approach to molecularly characterize isolated synaptosomes (presynaptic terminals attached to post-synaptic dendritic spines). […] After drug treatment, hippocampal synaptosome fractions were immunostained and analyzed by flow synaptometry. […]

[4] = tested on: H3K9me3; experiment: H3K9me3 level in cultured hippocampal neurons by Western blotting; type: cell-based
Procedure: Next, we examined the effect of ETP69 on H3K9me3 levels in cultured hippocampal neurons. […] FIGS. 14A-B are illustrations of the effect of ETP69 on H3K9me3 levels in 14 DIV hippocampal neurons (FIG. 14A—gel image; FIG. 14B—quantification, n=3, *, p<0.05). As the illustrations show, ETP69 treatment (24 hours) decreased H3K9me3 level measured by Western blotting.

SMILES: CN1C(=O)[C@@]23C[C@](C)(C#N)[C@H](c4ccc5c(c4)OCO5)N2C(=O)[C@]1(C)SS3 (racemic) [ETP69, Rac-(3S,6S,7S,8aS)-6-(benzo[d][1,3]dioxol-5-yl)-2,3,7-trimethyl-1,4-dioxohexahydro-6H-3,8a-epidithiopyrrolo[1,2-a]pyrazine-7-carbonitrile]
- OGD-induced cytotoxicity (LDH) ([1]; 4 nM): rescued neurons from OGD-induced cytotoxicity
- OGD-induced cytotoxicity (LDH) ([1]; 100 nM): not 100 nM rescued neurons from OGD-induced cytotoxicity
- H3K9me3 at bdnf promoter I (Exon 1) [2]: significant effect of treatment; also recorded: significantly lower
- PSD95 levels per particle (Mean Fluorescence of intensity) ([3]; 24 hours): No detectable changes
- proportion of size-gated synaptosomes expressing PSD95 ([3]; 24 hours): increases the proportion of synaptosomes expressing PSD95
- PSD95-positive events co-expressing surface GluR1 ([3]; versus vehicle-treated controls): increase
- proportion of events expressing both p-Akt and PSD-95 ([3]; versus vehicle-treated mice): increased the proportion of events expressing both p-Akt and PSD-95
- neuronal H3K9me3 level at 20 nM ([4]; 20 nM, 24 hours): greatest decrease
- neuronal H3K9me3 level ([4]; 24 hours treatment, 14 DIV hippocampal neurons): dose-dependent decrease
